≈ marks a conversion by molar mass, not a printed value. Calls of active or inactive are those of the source. No cut-off for these calls is given here.
Assays:
Human alphaherpesvirus 1 = experiment: Antiviral activity against HSV1 in african green monkey Vero cells at 320 ug/mL; format: functional, organism-based
Potato virus X = experiment: Antiviral activity against Potato virus X in half leaf of Chenopodium quinoa at 9.3 mg/mL after 10 days; format: functional; conditions: 240 h
[1] = molecular target: Acetylcholinesterase (Homo sapiens) (UniProt P22303); experiment: Inhibition of acetylcholinesterase-mediated hydrolysis of acetylcholine at 0.8 mg/mL relative to galanthamine
Staphylococcus aureus [2] = experiment: Antimicrobial activity against Staphylococcus aureus at 200 ug/mL after 24 hrs by disk diffusion method; format: functional, organism-based
Candida albicans [3] = experiment: Antimicrobial activity against Candida albicans at 300 ug/mL after 24 hrs by disk diffusion method; format: functional, organism-based
Candida albicans [4] = experiment: Antimicrobial activity against Candida albicans after 24 hrs by disk diffusion method; format: functional
Staphylococcus aureus [5] = experiment: Antimicrobial activity against Staphylococcus aureus after 24 hrs by disk diffusion method; format: functional

Chain of Acetylcholinesterase (Homo sapiens) (P22303 whole entry, the tested form may be a part): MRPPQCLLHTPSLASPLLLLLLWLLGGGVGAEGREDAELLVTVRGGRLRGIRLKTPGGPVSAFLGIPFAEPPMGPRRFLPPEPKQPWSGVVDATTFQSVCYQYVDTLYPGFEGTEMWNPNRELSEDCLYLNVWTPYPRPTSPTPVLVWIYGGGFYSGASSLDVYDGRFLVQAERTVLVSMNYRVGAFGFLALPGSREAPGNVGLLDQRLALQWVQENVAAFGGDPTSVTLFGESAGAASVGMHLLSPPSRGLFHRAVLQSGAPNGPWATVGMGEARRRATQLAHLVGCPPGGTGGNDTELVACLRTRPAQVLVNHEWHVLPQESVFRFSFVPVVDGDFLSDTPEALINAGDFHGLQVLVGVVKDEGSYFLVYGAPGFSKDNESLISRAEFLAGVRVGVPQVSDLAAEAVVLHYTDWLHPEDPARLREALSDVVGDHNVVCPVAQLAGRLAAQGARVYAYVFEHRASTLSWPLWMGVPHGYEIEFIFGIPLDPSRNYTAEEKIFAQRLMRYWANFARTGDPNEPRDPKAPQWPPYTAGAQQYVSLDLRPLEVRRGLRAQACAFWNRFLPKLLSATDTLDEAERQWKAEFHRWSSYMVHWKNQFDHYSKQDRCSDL

Row | SMILES | MIC (Human alphaherpesvirus 1) | inhibition at 9300 µg/mL (Potato virus X) | inhibition [1] | MIC (Staphylococcus aureus [2]) | MIC (Candida albicans [3]) | MIC (Candida albicans [4]) | MIC (Staphylococcus aureus [5])
1 | COc1ccc(-c2c(C)c(C)cc3ccc(O)cc23)cc1 | inactive | 36% | 67.6% | inactive | inactive | – | –
2 | O=C1C[C@H](c2ccc(O)c(O)c2)c2c(cc(O)c3c2O[C@H](c2ccc(O)c(O)c2)[C@H](O)[C@H]3c2c(O)cc(O)c3c2O[C@H](c2ccc(O)c(O)c2)[C@H](O)C3)O1 [CINCHONAIN IIA] | inactive | 100% | – | inactive | – | 150 µg/mL (≈ 203 µM) | –
3 | Oc1cc(O)c2c(c1)O[C@H](c1ccc(O)c(O)c1)[C@H](O)[C@H]2c1c(O)cc(O)c2c1O[C@H](c1ccc(O)c(O)c1)[C@H](O)C2 [PROCYANIDIN B2] | – | 98% | – | – | – | 150 µg/mL (≈ 259 µM) | 100 µg/mL (≈ 173 µM)
4 | O=c1c(O)c(-c2ccc(O)c(O)c2)oc2cc(O)cc(O)c12 [QUERCETIN] | – | 100% | – | – | – | – | –
5 | NC(=O)c1ncn([C@@H]2O[C@H](CO)[C@@H](O)[C@H]2O)n1 [RIBAVIRIN] | – | 94% | – | – | – | – | –
6 | COc1ccc(CCC(=O)c2c(OC)cc(O)c([C@@H](c3ccc(O)cc3)[C@@H](C)[C@H](C)Cc3ccc(O)cc3)c2O)cc1 [IRYANTHERIN K] | – | 89% | 77.4% | – | inactive | – | 50 µg/mL (≈ 87.6 µM)
7 | CCCCCCCC/C=C\CCCCCCCCCCCCCCCC[C@H]1C(=O)O[C@H](C)[C@@H]1O [MEGISLACTONE] | inactive | 20% | – | inactive | inactive | – | –
8 | C[C@@H]1OC(=O)[C@@H](CCCCCCCCCCCCCCCCCc2ccccc2)[C@@H]1O [GRANDINOLIDE] | inactive | 30% | – | inactive | inactive | – | –
9 | COc1ccc(CCC(=O)c2c(OC)cc(O)c([C@H](c3ccc(O)cc3)[C@@H](C)[C@H](C)Cc3ccc(O)cc3)c2O)cc1 [IRYANTHERIN L] | inactive | 67% | – | inactive | inactive | – | –

Reference: ChEMBL document CHEMBL1150650, “Bioactive constituents from Iryanthera megistophylla” (2002)
